Measurements published in ChEMBL document CHEMBL1208730, “Heteroaryl-linked 5-(1H-benzimidazol-1-yl)-2-thiophenecarboxamides: potent inhibitors of polo-like kinase 1 (PLK1) with improved drug-like properties” (Bioorg Med Chem Lett, 2010).
≈ marks a conversion by molar mass, not a printed value.

What was measured:
[1] = Solubility of the compound in 20% SBE beta-cyclodextrin at pH 6; format: physicochemical
[2] = Clearance in iv dosed mouse; format: ADME, organism-based; conditions: in vivo

Row | SMILES | solubility [1] [µg/mL] | clearance [2] [mL/min/kg]
1 | C[C@@H](Oc1cc(-n2cnc3cc(-c4ccnc(N)c4)ccc32)sc1C(N)=O)c1ccccc1C(F)(F)F | 1000 (≈ 1910 µM) | 38
2 | C[C@@H](Oc1cc(-n2cnc3cc(-c4ccnc(N5CCNCC5)c4)ccc32)sc1C(N)=O)c1ccccc1Cl |  | 58
3 | C[C@@H](Oc1cc(-n2cnc3cc(-c4ccnc(N5CCN(C)CC5)c4)ccc32)sc1C(N)=O)c1ccccc1Cl | 500 (≈ 872 µM) | 52
4 | C[C@@H](Oc1cc(-n2cnc3cc(-c4ccnc(N5CCN(C)CC5)c4)ccc32)sc1C(N)=O)c1ccccc1C(F)(F)F | 870 (≈ 1430 µM) | 32
5 | C[C@@H](Oc1cc(-n2cnc3cc(-c4ccnc(NCCS(C)(=O)=O)c4)ccc32)sc1C(N)=O)c1ccccc1Cl | 30 (≈ 50.3 µM) | 
6 | C[C@@H](Oc1cc(-n2cnc3cc(-c4ccnc(NCCO)c4)ccc32)sc1C(N)=O)c1ccccc1Cl | 300 (≈ 562 µM) | 109
7 | C[C@@H](Oc1cc(-n2cnc3cc(-c4ccc(NC5CCN(C)CC5)nc4)ccc32)sc1C(N)=O)c1ccccc1Cl | 2930 (≈ 4990 µM) | 19
8 | C[C@@H](Oc1cc(-n2cnc3cc(-c4cnn(CCN5CCN(C)CC5)c4)ccc32)sc1C(N)=O)c1ccccc1Cl | 4550 (≈ 7710 µM) | 54
9 | C[C@@H](Oc1cc(-n2cnc3cc(-c4cnn(CCCN(C)C)c4)ccc32)sc1C(N)=O)c1ccccc1Cl | 5830 (≈ 10600 µM) | 44
10 | CCN1CCN(CCCn2cc(-c3ccc4c(c3)ncn4-c3cc(O[C@H](C)c4ccccc4Cl)c(C(N)=O)s3)cn2)CC1 | 3120 (≈ 5050 µM) | 44

Results, then the compound that gave them:

Row | solubility [1] [µg/mL] | clearance [2] [mL/min/kg] | SMILES
11 | 200 (≈ 381 µM) | 70 | C[C@@H](Oc1cc(-n2cnc3cc(-c4ccnc(N)n4)ccc32)sc1C(N)=O)c1ccccc1C(F)(F)F
12 | 3230 (≈ 5430 µM) | 62 | C[C@@H](Oc1cc(-n2cnc3cc(-c4ccnc(NCCN(C)C)c4)ccc32)sc1C(N)=O)c1ccccc1C(F)(F)F
13 | 1050 (≈ 1790 µM) | 48 | C[C@@H](Oc1cc(-n2cnc3cc(-c4ccnc(NC5CCN(C)CC5)c4)ccc32)sc1C(N)=O)c1ccccc1Cl
14 | 530 (≈ 918 µM) | 82 | C[C@@H](Oc1cc(-n2cnc3cc(-c4cnn(CCN5CCOCC5)c4)ccc32)sc1C(N)=O)c1ccccc1Cl
15 | 3 (≈ 6.32 µM) | 70 | C[C@@H](Oc1cc(-n2cnc3cc(-c4ccncc4)ccc32)sc1C(N)=O)c1ccccc1Cl
16 | 100 (≈ 209 µM) | 15 | C[C@@H](Oc1cc(-n2cnc3cc(-c4cnn(C)c4)ccc32)sc1C(N)=O)c1ccccc1Cl
